Columns and labels:
[1] = system: U-46619-induced platelet aggregation; assay: Inhibition of U-46619-induced platelet aggregation (rat), in vitro in rat platelet rich plasma; type: cell-based; conditions: for IC50: 1 min preincubation at 37° C
Experimental: a. Inhibition of U-46619-induced platelet aggregation (rat)
Platelet rich plasma (PRP) was prepared from heparanized whole blood (5 units/ml) drawn from the abdominal aorta of ether anesthetized rats. PRP was prepared by centrifugation (Sorvall RC2B, DuPont, Wilmington, Del.) of the whole blood at 150×g for 10 min. Platelet poor plasma (PPP) was prepared by centrifugation at 1200×g for 20 min. Aliquots of PRP and PPP were used to standardize the aggregometer (Payton, Buffalo, N.Y., model 300B) with the recorder (Riken Denshi 2 channel recorder, Payton, model SP H5P) for measurement of […] light transmittance, respectively.
Platelet aggregation was measured as an increase in light transmittance. PRP (390 μl aliquot+5 μl compound vehicle) was preincubated for 1 min. at 37° C., with stirring at 900 rpm in the aggregometer. The vehicle control response was obtained by adding U-46619 (Cayman Chemical, Ann Arbor, Mich., 1-2 units/cuvette/10 μl ) to the aliquot of PRP. Aggregation was monitored until maximum aggregation was achieved (approximately 3 min. following the addition of U-46619). Amount of aggregation was measured by grids on the strip chart.
Compounds were dissolved in either ethanol (ETOH) or Na2 CO3 (0.1M) and preincubated at the desired concentration in PRP for 1 min. at 37° C. with stirring. At the end of the preincubation, U-46619 was added and aggregation measured. Inhibition of aggregation by compound was calculated as percent inhibition of the control aggregation response to U-46619. Dose response curves were generated and IC50 's calculated by linear regression.

[2] = system: U-46619 induced platelet aggregation; assay: Ex vivo inhibition of U-46619 induced platelet aggregation, intragastric (rat); type: in vivo; conditions: for ED50: read-out: I.G. ED50, ex vivo inhibition of U-46619 induced aggregation; for I.V./I.G. ratio: from the I.V. and the I.G. studies, rat ED50
Experimental: (§1) II. Ex vivo--(rat) Inhibition of U-46619 induced platelet aggregation
Compounds dissolved in Na Carbonate were administered to conscious rats with an I.G. tube. Fifteen minutes post administration (time previously determined to show maximum effect), rats were anesthetized with ether and blood was sampled from the abdominal aorta. PRP was prepared as described in II a.

[3] = system: collagen induced platelet aggregation; assay: Inhibition of collagen induced platelet aggregation in dog PRP; type: cell-based; conditions: Canis lupus familiaris
Experimental: c. Inhibition of collagen induced platelet aggregation in dogs by SC-44161 and SC-46984
Blood was collected into citrated vacutainers from the jugular veins of conscious dogs and centrifuged at 200×g for 7 min. PRP was separated and an aliquot (450 μl ) incubated 1 min. in the aggregometer (as described above). Collagen (50 μl, Helena Reagent, bovine tendon) was added and aggregation monitored for 5 min. Percent inhibition and IC50 's were determined as previously described.

[4] = system: U-46619 induced platelet aggregation; assay: Ex vivo inhibition of U-46619 induced platelet aggregation, intravenous (rat); type: in vivo; conditions: for ED50: Platelet, iv, 0.5 min, i.v. bolus, blood sampled 30 sec. later
Experimental: as §1
Rats were anesthetized with ether and the jugular vein exposed. Compound dissolved in 0.1M Na Carbonate was injected as a bolus into the jugular vein. Blood (5 ml, heparanized) was sampled 30 sec. later from the abdominal aorta. PRP was prepared by quick centrifugation (Eppendorf, model 5415 at 12,000 rpm for 5 sec.) PPP was prepared by centrifugation for 2 min. PRP was diluted 1:1 with PPP from, similarly treated animals. Aggregation was monitored for 5 min. and inhibition was determined as previously described.

human washed platelets = assay: Analysis of partial agonism with SC-46985 (human washed platelets); type: cell-based
Experimental: b. Analysis of partial agonism with SC-46985 (human washed platelets)
(§2) Sixty ml of blood were drawn into 1/10 volume of CCD (100 mM Na Citrate and 136 mM glucose, pH 6.5 with HCl) and PRP prepared as described above. PRP was placed on ice for 15 min. One half of the volume of CCD was added and recentrifuged. The platelet pellet was gently resuspended in 1/2 the original volume of PRP in a 0° C. modified Tangen-Hepes-BSA buffer (145 mM NaCl, 5 mM KCl, 0.05 mM CaCl2, 0.1 mM MgCl2, 11 mM glucose, 15 mM Hepes, 1 mg/ml bovine serum albumin, pH adjusted to 7.4 with NaOH). The resuspended platelets were incubated undisturbed at 37° C. for 30 min. After incubation a platelet count was determined and adjusted to 3×10^8 cells/ml with the Tangen-Hepes-BSA buffer.
(§3) 425 μl of the washed human platelet suspension was incubated in the aggregometer in the presence of 16 mM CaCl2 (50 μl ) and SC-46985 for 5 and 10 min. […] (In a study similar to (a) above, aliquots of human washed platelets were incubated with various concentrations of SC-46985 and U-46619 to determine dose-related inhibition of aggregation).

[5] = system: human washed platelets stimulated with U-46619; assay: Inhibition of U-46619 stimulated aggregation of human washed platelets by SC-46985; type: cell-based; conditions: Platelet
Experimental: as §2, §3

[6] = Rattus norvegicus, Platelet, vehicle Na2CO3 (0.1M), (a) values are estimates based on all-or-none responses
[7] = Platelet, po, 0.25 h, rat, intragastric, 15 min post administration
[8] = Rattus norvegicus, Platelet, vehicle ETOH

**Q.** With CC(=NNC(=S)Nc1ccccc1)C1C2CCC(C2)C1CC=CCCCC(=O)O (racemic) [SC-44161, (±)7-[3α[[(Phenylamino)thioxomethyl]hydrazono]ethyl]1α,4α-bicyclo[2.2.1]hept-2β-yl]-5Z-heptenoic acid] as the compound, how does the IC50 [1, 6] read?
**A.** 70 nM

**Q.** And the “more potent when in aqueous solution than when dissolved in ethanol” value ([1]; rat PRP, Na carbonate vs ETOH)?
**A.** 5-10 fold

**Q.** And the ED50 [2, 7]?
**A.** 1.21 mg/kg

**Q.** And the I.V./I.G. ratio [2]?
**A.** 39

**Q.** What about the IC50 [3] of the same compound?
**A.** 11400 nM

**Q.** What about the ED50 [4] of the same compound?
**A.** 0.031 mg/kg

**Q.** Which results are given for CC(=NNC(=S)Nc1ccccc1)[C@@H]1[C@H]2CC[C@H](C2)[C@H]1C/C=C\CCCC(=O)O [SC-46984, 7-[3α-[1-[[(Phenylamino)thioxomethyl]hydrazono]ethyl]-1R, 1α,4α-bicyclo[2.2.1]hept-2β-yl]5Z-heptenoic acid]?
**A.** IC50 [1, 8]: 50 nM; IC50 [1, 6]: 0.7 nM; more potent in aqueous solution than in ethanol ([1]; rat PRP, Na carbonate vs ETOH): 10-50 times; times more potent than SC-44161 (in vitro) ([1]; rat PRP, U-46619): approximately 100 times; ED50 [2, 7]: 0.44 mg/kg; I.V./I.G. ratio [2]: 51; times more potent than SC-44161 (I.G.) ([2]; rat, intragastric, ex vivo): approximately 2.8 times; IC50 [3]: 2090 nM; ED50 [4]: 0.0087 mg/kg; times more potent than SC-44161 (I.V.) ([4]; i.v., ex vivo): approximately 3.5 times

**Q.** For CC(=NNC(=S)Nc1ccccc1)[C@H]1[C@@H]2CC[C@@H](C2)[C@@H]1C/C=C\CCCC(=O)O [SC-46985], which IC50 [1, 8] is on record?
**A.** 970 nM

**Q.** And the IC50 [1, 6]?
**A.** ~2500 nM

**Q.** What about the partial agonist activity (human washed platelets; 5 and 10 min. incubation) of the same compound?
**A.** lack of partial agonist activity

**Q.** What about the “evidence of shape change or aggregation (partial agonism)” value (human washed platelets; after 5 and 10 min. incubation) of the same compound?
**A.** no evidence of shape change or aggregation

**Q.** And the ED50 [4]?
**A.** 0.045 mg/kg

**Q.** What about the “times less potent than SC-44161 (I.V.)” value ([4]; i.v., ex vivo) of the same compound?
**A.** approximately 1.5 times

**Q.** What about the IC50 [5] of the same compound?
**A.** 5600 nM

**Q.** With CC(=NNC(=S)Nc1ccccc1)C1C2CCC(C2)C1CC=CCCCC(=O)O (stereo not shown) [SC-46986] as the compound, how does the IC50 ([1]; vehicle ETOH) read?
**A.** 690 nM

**Q.** Which results are given for CC(=NNC(=S)Nc1ccccc1)[C@@H]1[C@H]2CC[C@H](C2)[C@H]1C/C=C/CCCC(=O)O [SC-47721, 7-[3α-[1-[[(Phenylamino)thioxomethyl]hydrazono]ethyl]-1R, 1α,4α-bicyclo[2.2.1]hept-2β-yl]-5E-heptenoic acid]?
**A.** IC50 [1, 6]: ~7.5 nM; potency compared with SC-46984 (in vitro) ([1]; rat PRP, U-46619): less potent than SC 46984; times more potent than SC-44161 (in vitro) ([1]; rat PRP, U-46619): 10-50 times; inhibition at 1 mg/kg ([2]; Platelet, po, 0.25 h, rat, intragastric, 1 mg/kg, 15 min post administration): 37.5%
